Measured values taken from ChEMBL document CHEMBL1909046, “DrugMatrix in vitro pharmacology data”.

Legend:
[1] = target: T1, D(4) dopamine receptor (Homo sapiens, UniProt P21917); experiment: DRUGMATRIX: Dopamine D4.2 radioligand binding (ligand: [3H] Spiperone); format: cell membranes, CHO-K1, Membrane; conditions: cho-k1; Not Active = under 50% inhibition at 10 µM
T1 sequence (P21917 whole entry): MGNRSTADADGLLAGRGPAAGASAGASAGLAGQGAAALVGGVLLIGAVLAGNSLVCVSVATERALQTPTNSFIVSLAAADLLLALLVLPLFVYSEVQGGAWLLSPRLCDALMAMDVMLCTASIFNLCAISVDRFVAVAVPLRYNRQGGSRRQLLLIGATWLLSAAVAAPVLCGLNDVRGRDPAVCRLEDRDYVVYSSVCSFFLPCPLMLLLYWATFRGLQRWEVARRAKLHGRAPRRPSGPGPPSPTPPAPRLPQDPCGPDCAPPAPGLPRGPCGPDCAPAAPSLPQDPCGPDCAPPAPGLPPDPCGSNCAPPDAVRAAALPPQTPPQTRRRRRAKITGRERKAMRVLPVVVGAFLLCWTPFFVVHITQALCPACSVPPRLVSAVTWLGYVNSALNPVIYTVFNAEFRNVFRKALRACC

[2] = DRUGMATRIX: GABAA, Chloride Channel, TBOB radioligand binding (ligand: [3H] TBOB); format: cell membranes, Rattus norvegicus, Wistar, Cerebral cortex, Membrane; conditions: Not Active = under 50% inhibition at 10 µM
[3] = DRUGMATRIX: Glutamate, NMDA, Agonism radioligand binding (ligand: [3H] CGP-39653); format: cell membranes, Rattus norvegicus, Wistar, Cerebral cortex, Membrane; conditions: Not Active = under 50% inhibition at 10 µM
[4] = DRUGMATRIX: Interleukin IL-1 radioligand binding (ligand: [125I] interleukin 1beta); format: cell membranes, Membrane; conditions: nih3t3; Not Active = under 50% inhibition at 10 µM
[5] = target: Melanocortin receptor 5 (Homo sapiens, UniProt P33032); format: cell membranes, HEK293, Membrane; conditions: hek293; further: in other assays of this panel Not Active means under 50% inhibition at 10 µM
Melanocortin receptor 5, sequence (P33032 whole entry): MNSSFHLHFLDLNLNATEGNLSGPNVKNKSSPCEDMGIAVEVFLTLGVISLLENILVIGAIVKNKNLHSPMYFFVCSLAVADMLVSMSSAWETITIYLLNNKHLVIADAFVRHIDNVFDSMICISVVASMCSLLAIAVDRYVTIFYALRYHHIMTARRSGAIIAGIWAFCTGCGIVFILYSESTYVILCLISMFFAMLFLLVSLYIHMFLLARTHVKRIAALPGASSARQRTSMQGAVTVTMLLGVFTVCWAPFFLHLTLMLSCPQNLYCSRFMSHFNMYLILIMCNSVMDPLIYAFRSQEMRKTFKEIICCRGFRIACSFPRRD

[6] = target: T2, Muscarinic acetylcholine receptor M5 (Homo sapiens, UniProt P08912); format: cell membranes, CHO-K1, Membrane; conditions: cho-k1; further: in other assays of this panel Not Active means under 50% inhibition at 10 µM
T2 sequence (P08912 whole entry): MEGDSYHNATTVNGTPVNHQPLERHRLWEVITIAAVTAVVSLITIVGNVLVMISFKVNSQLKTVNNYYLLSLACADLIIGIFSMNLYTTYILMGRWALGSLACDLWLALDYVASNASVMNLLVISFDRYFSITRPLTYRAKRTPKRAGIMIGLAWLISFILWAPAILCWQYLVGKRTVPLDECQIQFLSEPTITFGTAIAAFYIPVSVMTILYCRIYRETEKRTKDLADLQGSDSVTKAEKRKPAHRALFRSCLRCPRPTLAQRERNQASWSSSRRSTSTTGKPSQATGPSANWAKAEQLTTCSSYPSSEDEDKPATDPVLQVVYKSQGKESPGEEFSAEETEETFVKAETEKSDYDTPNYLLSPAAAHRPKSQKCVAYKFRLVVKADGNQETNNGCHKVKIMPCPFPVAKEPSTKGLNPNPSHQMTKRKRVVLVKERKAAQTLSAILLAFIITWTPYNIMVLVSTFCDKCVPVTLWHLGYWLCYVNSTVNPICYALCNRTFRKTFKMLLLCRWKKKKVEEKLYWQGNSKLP

[7] = target: T3, Angiotensin-converting enzyme (Oryctolagus cuniculus, UniProt P12822); experiment: biochemical; format: tissue-based, Lung;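 further: enzymatic inhibition of angiotensin-converting enzyme measured with FAPGG as the substrate; in other assays of this panel Not Active means under 50% inhibition at 10 µM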
T3 sequence (P12822 whole entry): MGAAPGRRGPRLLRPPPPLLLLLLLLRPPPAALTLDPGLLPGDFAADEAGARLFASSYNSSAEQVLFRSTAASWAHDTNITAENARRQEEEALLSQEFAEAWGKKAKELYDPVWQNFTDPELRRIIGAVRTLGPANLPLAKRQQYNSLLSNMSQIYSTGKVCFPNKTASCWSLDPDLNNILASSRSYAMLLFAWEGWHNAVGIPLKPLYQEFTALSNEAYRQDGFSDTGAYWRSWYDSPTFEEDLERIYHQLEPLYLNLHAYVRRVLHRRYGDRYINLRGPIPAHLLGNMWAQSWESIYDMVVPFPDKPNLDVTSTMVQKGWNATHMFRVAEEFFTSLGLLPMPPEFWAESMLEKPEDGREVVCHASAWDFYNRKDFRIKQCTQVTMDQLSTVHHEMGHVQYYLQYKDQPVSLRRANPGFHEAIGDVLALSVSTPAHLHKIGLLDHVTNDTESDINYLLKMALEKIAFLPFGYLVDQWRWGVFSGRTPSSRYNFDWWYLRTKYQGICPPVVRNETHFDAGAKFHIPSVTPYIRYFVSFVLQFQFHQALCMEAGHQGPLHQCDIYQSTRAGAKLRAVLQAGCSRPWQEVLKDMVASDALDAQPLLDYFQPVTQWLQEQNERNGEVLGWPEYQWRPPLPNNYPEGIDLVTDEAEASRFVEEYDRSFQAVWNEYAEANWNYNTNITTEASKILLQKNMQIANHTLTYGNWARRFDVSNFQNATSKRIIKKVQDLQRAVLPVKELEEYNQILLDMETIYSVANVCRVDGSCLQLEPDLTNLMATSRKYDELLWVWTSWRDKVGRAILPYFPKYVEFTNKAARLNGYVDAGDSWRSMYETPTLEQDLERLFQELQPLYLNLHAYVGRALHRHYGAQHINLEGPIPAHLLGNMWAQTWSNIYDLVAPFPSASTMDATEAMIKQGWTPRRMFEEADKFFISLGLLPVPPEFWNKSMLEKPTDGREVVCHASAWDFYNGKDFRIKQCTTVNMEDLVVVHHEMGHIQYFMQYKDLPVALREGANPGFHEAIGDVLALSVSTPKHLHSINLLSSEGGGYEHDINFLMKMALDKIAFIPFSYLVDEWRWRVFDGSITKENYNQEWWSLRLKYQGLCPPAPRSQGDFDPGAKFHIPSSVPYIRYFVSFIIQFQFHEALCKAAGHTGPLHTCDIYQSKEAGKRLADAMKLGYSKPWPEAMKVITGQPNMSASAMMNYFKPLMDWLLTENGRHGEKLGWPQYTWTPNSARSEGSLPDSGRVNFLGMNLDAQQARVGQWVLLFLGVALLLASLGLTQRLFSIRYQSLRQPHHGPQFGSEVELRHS

[8] = target: Epidermal growth factor receptor (Homo sapiens, UniProt P00533); experiment: DRUGMATRIX: Protein Tyrosine Kinase, EGF Receptor enzyme inhibition (substrate: Poly(Glu:Tyr)); format: cell-based, Insect cells; conditions: Not Active = under 50% inhibition at 10 µM

Molecule | IC50 [1] | IC50 [2] | Ki [2] | IC50 [3] | Ki [3] | IC50 [4] | Ki [4] | IC50 [5] | IC50 [6] | IC50 [7] | IC50 ([8]; insect cells) | IC50 ([8]; read-out: IC50) | Ki [1] | Ki [5] | IC50 ([6]; read-out: IC50) | Ki ([6]; read-out: Ki) | Ki [7] | Ki ([8]; insect cells)
CN[C@H](CC(C)C)C(=O)N[C@H]1C(=O)N[C@@H](CC(N)=O)C(=O)N[C@H]2C(=O)N[C@H]3C(=O)N[C@H](C(=O)N[C@H](C(=O)O)c4cc(O)cc(O)c4-c4cc3ccc4O)[C@H](O)c3ccc(c(Cl)c3)Oc3cc2cc(c3O[C@@H]2O[C@H](CO)[C@@H](O)[C@H](O)[C@H]2O[C@H]2C[C@](C)(N)[C@H](O)[C@H](C)O2)Oc2ccc(cc2Cl)[C@H]1O [VANCOMYCIN] | Not Active | Not Active | Not Active | Not Active | Not Active | Not Active | Not Active | Not Active | Not Active | Not Active | Not Active |  |  |  |  |  |  | 
CC(C)[C@H](N)C(=O)OCCOCn1cnc2c(=O)nc(N)[nH]c21 [VALACYCLOVIR] | Not Active | Not Active | Not Active | Not Active | Not Active | Not Active | Not Active | Not Active | Not Active | Not Active | Not Active |  |  |  |  |  |  | 
COS(C)(=O)=O [METHANESULFONIC ACID METHYL ESTER] | Not Active | Not Active | Not Active | Not Active | Not Active | Not Active | Not Active | Not Active | Not Active | Not Active | Not Active |  |  |  |  |  |  | 
CC1CN(c2cc3c(cc2F)c(=O)c(C(=O)O)cn3-c2ccc(F)cc2F)CCN1 (configuration not stated) [TEMAFLOXACIN] | Not Active | Not Active | Not Active | Not Active | Not Active | Not Active | Not Active | Not Active | Not Active | Not Active | Not Active |  |  |  |  |  |  | 
O=C1c2c(O)ccc(O)c2C(=O)c2c(NCCNCCO)ccc(NCCNCCO)c21 [MITOXANTRONE] | Not Active | Not Active | Not Active | Not Active | Not Active | Not Active | Not Active | Not Active | Not Active | Not Active |  | 5.39 µM |  |  |  |  |  | 
CN(C)[C@@H]1C(O)=C(C(N)=O)C(=O)[C@@]2(O)C(O)=C3C(=O)c4c(O)cccc4[C@@](C)(O)[C@H]3C[C@@H]12 [TETRACYCLINE] | Not Active | Not Active | Not Active | Not Active | Not Active | Not Active | Not Active | Not Active | Not Active | Not Active | Not Active |  |  |  |  |  |  | 
COc1cc(C(=O)NC2CCCNC2)cc(OC)c1OC (configuration not stated) [TROXIPIDE] | Not Active | Not Active | Not Active | Not Active | Not Active | Not Active | Not Active | Not Active | Not Active | Not Active | Not Active |  |  |  |  |  |  | 
IVERMECTIN | Not Active | Not Active | Not Active | Not Active | Not Active | Not Active | Not Active | Not Active |  | Not Active | Not Active |  | Not Active | Not Active | 3.61 µM | 2.59 µM | Not Active | Not Active
CC1(C)[C@H]2CC[C@]1(C)C(=O)C2 [(-)-CAMPHOR] | Not Active | Not Active | Not Active | Not Active | Not Active | Not Active | Not Active | Not Active | Not Active | Not Active | Not Active |  |  |  |  |  |  | 
Nc1ccc(S(N)(=O)=O)cc1 [SULFANILAMIDE] | Not Active | Not Active | Not Active | Not Active | Not Active | Not Active | Not Active | Not Active | Not Active | Not Active | Not Active |  |  |  |  |  |  | 
c1ccc2[nH]c(-c3cscn3)nc2c1 [THIABENDAZOLE] | Not Active | Not Active | Not Active | Not Active | Not Active | Not Active | Not Active | Not Active | Not Active | Not Active | Not Active |  |  |  |  |  |  | 
CC[C@H]1OC(=O)[C@H](C)[C@@H](O[C@H]2C[C@@](C)(OC)[C@@H](O)[C@H](C)O2)[C@H](C)[C@@H](O[C@@H]2O[C@H](C)C[C@H](N(C)C)[C@H]2O)[C@](C)(O)C[C@@H](C)/C(=N\OCOCCOC)[C@H](C)[C@@H](O)[C@]1(C)O [ROXITHROMYCIN] | Not Active | Not Active | Not Active | Not Active | Not Active | Not Active | Not Active | Not Active | Not Active | Not Active | Not Active |  |  |  |  |  |  | 
